Experimental findings from ChEMBL document CHEMBL3045407, “Synthesis and antimicrobial activity of pyrazolinones and pyrazoles having benzothiazole moiety” (2012) are described below.

Holding throughout (format): functional
One assay has as its system Candida albicans. The assay can be described thus: Antimicrobial activity against Candida albicans ATCC 90028 by serial plate dilution method.
Another assay relates to Aspergillus niger. The assay can be described thus: Antimicrobial activity against Aspergillus niger ATCC 9029 by serial plate dilution method.
A further assay deals with Escherichia coli. The assay can be described thus: Antimicrobial activity against Escherichia coli ATCC 25922 by serial plate dilution method.
The subject of a further assay is Staphylococcus aureus. The assay can be described thus: Antimicrobial activity against Staphylococcus aureus ATCC 25923 by serial plate dilution method.

Converted amounts (≈) assume the structure as drawn.

As to `NNc1nc2ccc(Cl)cc2s1`, the minimal inhibitory concentration (MIC) (commonly the smallest concentration in the dilution series that meets the test's criterion for growth inhibition) against Candida albicans amounted to 501 µM (≈ 100 µg/mL); against Aspergillus niger it was 1000 µM (≈ 200 µg/mL); against Escherichia coli, 501 µM (≈ 100 µg/mL); with Staphylococcus aureus, 250 µM (≈ 50 µg/mL).

For `COc1ccc(N/N=C2/C(=O)N(c3nc4ccc(Cl)cc4s3)N=C2C)cc1`, the minimal inhibitory concentration (MIC) was 251 µM (≈ 100 µg/mL) against Candida albicans, 501 µM (≈ 200 µg/mL) against Aspergillus niger, 251 µM (≈ 100 µg/mL) with Escherichia coli and 125 µM (≈ 50.1 µg/mL) against Staphylococcus aureus.

`CC1=NN(c2nc3ccc(Cl)cc3s2)C(=O)/C1=N/Nc1ccc(Br)cc1`: the minimal inhibitory concentration (MIC) came out at 112 µM (≈ 50.1 µg/mL) against Candida albicans, 223 µM (≈ 100 µg/mL) in the assay on Aspergillus niger, 112 µM (≈ 50.1 µg/mL) against Escherichia coli and 13.9 µM (≈ 6.26 µg/mL) in the assay on Staphylococcus aureus.

Take `CC1=NN(c2nc3ccc(Cl)cc3s2)C(=O)/C1=N/Nc1ccc(F)cc1`: the MIC in the assay with Candida albicans was found to be 64.6 µM (≈ 25 µg/mL); against Aspergillus niger it was 129 µM (≈ 50.1 µg/mL); in the assay with Escherichia coli it was 129 µM (≈ 50.1 µg/mL); against Staphylococcus aureus it was 32.3 µM (≈ 12.5 µg/mL).

Regarding `CC1=NN(c2nc3ccc(Cl)cc3s2)C(=O)/C1=N/Nc1ccc(Cl)cc1`, the MIC against Candida albicans amounted to 124 µM (≈ 50.1 µg/mL); with Aspergillus niger it was 124 µM (≈ 50.1 µg/mL); in the assay with Escherichia coli it was 62 µM (≈ 25.1 µg/mL); with Staphylococcus aureus, 31 µM (≈ 12.5 µg/mL).

With `CC1=NN(c2nc3ccc(Cl)cc3s2)C(=O)/C1=N/Nc1ccccc1Cl`, the MIC is 248 µM (≈ 100 µg/mL) in the assay with Candida albicans, 248 µM (≈ 100 µg/mL) against Aspergillus niger, 124 µM (≈ 50.2 µg/mL) in the assay on Escherichia coli and 62 µM (≈ 25.1 µg/mL) against Staphylococcus aureus.

Consider `CC1=NN(c2nc3ccc(Cl)cc3s2)C(=O)/C1=N/Nc1ccc(C)cc1`, for which the MIC in the assay with Candida albicans came to 522 µM (≈ 200 µg/mL); against Aspergillus niger, 261 µM (≈ 100 µg/mL); in the assay with Escherichia coli, 131 µM (≈ 50.1 µg/mL); against Staphylococcus aureus, 65.3 µM (≈ 25.1 µg/mL).

As for `CC1=NN(c2nc3ccc(Cl)cc3s2)C(=O)/C1=N/Nc1ccccc1C`, the MIC against Candida albicans was 522 µM (≈ 200 µg/mL); against Aspergillus niger, 261 µM (≈ 100 µg/mL); in the assay on Escherichia coli, 261 µM (≈ 100 µg/mL); in the assay with Staphylococcus aureus it was 131 µM (≈ 50.1 µg/mL).

`CC1=NN(c2nc3ccc(Cl)cc3s2)C(=O)/C1=N/Nc1ccc(C(=O)O)cc1`: the MIC came out at 242 µM (≈ 100 µg/mL) against Candida albicans, 484 µM (≈ 200 µg/mL) in the assay on Aspergillus niger, 242 µM (≈ 100 µg/mL) with Escherichia coli and 121 µM (≈ 50.1 µg/mL) with Staphylococcus aureus.

`CC1=NN(c2nc3ccc(Cl)cc3s2)C(=O)/C1=N/Nc1ccccc1C(=O)O`: the minimum inhibitory concentration (MIC) was found to be 121 µM (≈ 50.1 µg/mL) in the assay with Candida albicans, 484 µM (≈ 200 µg/mL) in the assay on Aspergillus niger, 484 µM (≈ 200 µg/mL) against Escherichia coli and 242 µM (≈ 100 µg/mL) against Staphylococcus aureus.

Take `CC1=NN(c2nc3ccc(Cl)cc3s2)C(=O)/C1=N/Nc1ccccc1O`: the minimal inhibitory concentration (MIC) in the assay on Candida albicans is 260 µM (≈ 100 µg/mL); in the assay with Aspergillus niger, 519 µM (≈ 200 µg/mL); against Escherichia coli, 260 µM (≈ 100 µg/mL); against Staphylococcus aureus it was 130 µM (≈ 50.1 µg/mL).

For `Cc1nn(-c2nc3ccc(Cl)cc3s2)c(C)c1/N=N/c1ccc(C(=O)O)cc1`, the minimum inhibitory concentration (MIC) against Candida albicans was found to be 243 µM (≈ 100 µg/mL); in the assay on Aspergillus niger, 243 µM (≈ 100 µg/mL); in the assay with Escherichia coli, 243 µM (≈ 100 µg/mL); in the assay with Staphylococcus aureus it was 122 µM (≈ 50.1 µg/mL).

`Cc1nn(-c2nc3ccc(Cl)cc3s2)c(C)c1/N=N/c1ccccc1C(=O)O`: the MIC was found to be 243 µM (≈ 100 µg/mL) with Candida albicans, 122 µM (≈ 50.1 µg/mL) in the assay with Aspergillus niger, 487 µM (≈ 200 µg/mL) in the assay on Escherichia coli and 122 µM (≈ 50.1 µg/mL) in the assay on Staphylococcus aureus.

Turning to `Cc1nn(-c2nc3ccc(Cl)cc3s2)c(C)c1/N=N/c1ccccc1O`, the MIC against Candida albicans came to 261 µM (≈ 100 µg/mL); against Aspergillus niger, 522 µM (≈ 200 µg/mL); in the assay on Escherichia coli, 522 µM (≈ 200 µg/mL); against Staphylococcus aureus it was 522 µM (≈ 200 µg/mL).

As for `COc1ccc(/N=N/c2c(C)nn(-c3nc4ccc(Cl)cc4s3)c2C)cc1`, the minimal inhibitory concentration (MIC) is 63 µM (≈ 25.1 µg/mL) against Candida albicans, 504 µM (≈ 200 µg/mL) in the assay on Aspergillus niger, 252 µM (≈ 100 µg/mL) in the assay with Escherichia coli and 252 µM (≈ 100 µg/mL) against Staphylococcus aureus.

For `Cc1nn(-c2nc3ccc(Cl)cc3s2)c(C)c1/N=N/c1ccc(Br)cc1`, the MIC against Candida albicans worked out at 112 µM (≈ 50.1 µg/mL); in the assay with Aspergillus niger, 56 µM (≈ 25 µg/mL); against Escherichia coli, 112 µM (≈ 50.1 µg/mL); with Staphylococcus aureus it was 112 µM (≈ 50.1 µg/mL).

`Cc1nn(-c2nc3ccc(Cl)cc3s2)c(C)c1/N=N/c1ccc(F)cc1`: the minimal inhibitory concentration (MIC) was 260 µM (≈ 100 µg/mL) in the assay with Candida albicans, 130 µM (≈ 50.1 µg/mL) against Aspergillus niger, 32.5 µM (≈ 12.5 µg/mL) in the assay on Escherichia coli and 64.9 µM (≈ 25.1 µg/mL) in the assay with Staphylococcus aureus.

With `Cc1nn(-c2nc3ccc(Cl)cc3s2)c(C)c1/N=N/c1ccc(Cl)cc1`, the minimum inhibitory concentration (MIC) in the assay with Candida albicans amounted to 249 µM (≈ 100 µg/mL); against Aspergillus niger, 31.2 µM (≈ 12.5 µg/mL); with Escherichia coli, 125 µM (≈ 50.2 µg/mL); against Staphylococcus aureus, 15.6 µM (≈ 6.27 µg/mL).

Consider `Cc1nn(-c2nc3ccc(Cl)cc3s2)c(C)c1/N=N/c1ccccc1Cl`, for which the minimum inhibitory concentration (MIC) was found to be 125 µM (≈ 50.2 µg/mL) against Candida albicans, 125 µM (≈ 50.2 µg/mL) against Aspergillus niger, 249 µM (≈ 100 µg/mL) in the assay with Escherichia coli and 499 µM (≈ 201 µg/mL) with Staphylococcus aureus.

As to `Cc1ccc(/N=N/c2c(C)nn(-c3nc4ccc(Cl)cc4s3)c2C)cc1`, the MIC in the assay on Candida albicans was found to be 131 µM (≈ 50.1 µg/mL); in the assay with Aspergillus niger, 262 µM (≈ 100 µg/mL); with Escherichia coli, 65.6 µM (≈ 25.1 µg/mL); against Staphylococcus aureus, 131 µM (≈ 50.1 µg/mL).

With `Cc1ccccc1/N=N/c1c(C)nn(-c2nc3ccc(Cl)cc3s2)c1C`, the MIC against Candida albicans is 262 µM (≈ 100 µg/mL); in the assay on Aspergillus niger it was 525 µM (≈ 200 µg/mL); against Escherichia coli it was 262 µM (≈ 100 µg/mL); in the assay with Staphylococcus aureus, 262 µM (≈ 100 µg/mL).

Consider `CC(=O)N1CCN(c2ccc(OCC3COC(Cn4ccnc4)(c4ccc(Cl)cc4Cl)O3)cc2)CC1` (stereo unspecified) [KETOCONAZOLE], for which the MIC against Candida albicans stood at 5.88 µM (≈ 3.12 µg/mL); with Aspergillus niger, 11.8 µM (≈ 6.25 µg/mL).
